PubChem BioAssay AID330 (DTP/NCI, 2004)
Toxic doses and inconclusive results are not listed. Rule for the calls: active = survival T/C of 150% or more; inactive = T/C below 125% in these data.

Tested on: P388 leukemia ip, CD2F1 mice, survival T/C
Test: NCI In Vivo Anticancer Drug Screen. Data for tumor model P388 Leukemia (intraperitoneal) in CD2F1 (CDF1) mice
Details: endpoint: median survival time, higher = longer survival
Summary of the method: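 Mice carrying the transplanted tumor received test compound or vehicle. Survival was recorded in each group, and the value is the treated-group measurement divided by that of the vehicle-treated control group.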

[1] = dose: 50.0 mg/kg/injection, schedule: Q01DX005 (ip), vehicle: saline with Tween-80
[2] = dose: 100.0 mg/kg/injection, schedule: Q01DX005 (ip), vehicle: saline with Tween-80
[3] = dose: 200.0 mg/kg/injection, schedule: Q01DX005 (ip), vehicle: saline with Tween-80
[4] = dose: 100.0 mg/kg/injection, schedule: Q04DX003 (ip), vehicle: saline with Tween-80
[5] = dose: 200.0 mg/kg/injection, schedule: Q04DX003 (ip), vehicle: saline with Tween-80
[6] = dose: 400.0 mg/kg/injection, schedule: Q04DX003 (ip), vehicle: saline with Tween-80

Measured: T/C

COc1cccc(CSCC(=O)O)c1
inactive: dose: 50.0 mg/kg/injection, schedule: Q01DX009 (ip), vehicle: saline 97 % of control | dose: 100.0 mg/kg/injection, schedule: Q01DX009 (ip), vehicle: saline 102 % of control | dose: 200.0 mg/kg/injection, schedule: Q01DX009 (ip), vehicle: saline 92 % of control

NS(=O)(=O)c1ccc(NC(=O)Oc2ccc([N+](=O)[O-])cc2)cc1
inactive: dose: 100.0 mg/kg/injection, schedule: Q01DX001 (ip), vehicle: saline with Tween-80 100 % of control | dose: 200.0 mg/kg/injection, schedule: Q01DX001 (ip), vehicle: saline with Tween-80 100 % of control | dose: 400.0 mg/kg/injection, schedule: Q01DX001 (ip), vehicle: saline with Tween-80 104 % of control

Nc1ccc(S(=O)(=O)n2c(=O)oc3ccc(Cl)cc32)cc1
inactive: dose: 50.0 mg/kg/injection, schedule: Q04DX002 (ip), vehicle: Klucel (hydroxypropylcellulose) (HPC) 97 % of control | dose: 100.0 mg/kg/injection, schedule: Q04DX002 (ip), vehicle: Klucel (hydroxypropylcellulose) (HPC) 97 % of control | dose: 200.0 mg/kg/injection, schedule: Q04DX002 (ip), vehicle: Klucel (hydroxypropylcellulose) (HPC) 90 % of control

C=C(CCC(C(=O)O)C1C(O)CC2(C)C3=C(CCC12C)C1(C)CCC(OC(C)=O)C(C)(C)C1CC3)C(C)C (centres undefined)
inactive: dose: 12.5 mg/kg/injection, schedule: Q01DX009 (ip), vehicle: saline with Tween-80 100 % of control | dose: 25.0 mg/kg/injection, schedule: Q01DX009 (ip), vehicle: saline with Tween-80 96 % of control | dose: 50.0 mg/kg/injection, schedule: Q01DX009 (ip), vehicle: saline with Tween-80 98 % of control

COc1ccc(C(c2cc3c(cc2O)OCO3)N2CCOCC2)cc1OC (centres undefined)
inactive: dose: 60.0 mg/kg/injection, schedule: Q01DX005 (ip), vehicle: saline with Tween-80 101 % of control | dose: 120.0 mg/kg/injection, schedule: Q01DX005 (ip), vehicle: saline with Tween-80 109 % of control | dose: 240.0 mg/kg/injection, schedule: Q01DX005 (ip), vehicle: saline with Tween-80 111 % of control

Cc1ccc2c(c1)S(=O)(=O)c1ccc3ccccc3c1N2
inactive: [1] 101 % of control | [2] 99 % of control | [3] 100 % of control

O=C(O)c1cccc(C(=O)O)c1S(=O)c1ccccc1 (centres undefined)
inactive: dose: 100.0 mg/kg/injection, schedule: Q04DX002 (ip), vehicle: other 102 % of control | dose: 200.0 mg/kg/injection, schedule: Q04DX002 (ip), vehicle: other 103 % of control | dose: 400.0 mg/kg/injection, schedule: Q04DX002 (ip), vehicle: other 94 % of control

CCB(CC)OC1OC(C2COB(CC)O2)C2OB(CC)OC12 (centres undefined)
inactive: [1] 103 % of control | [2] 95 % of control | [3] 101 % of control

O=C1C(C(=Nc2ccccc2Cl)c2ccccc2)=C(O)c2ccccc21
inactive: dose: 25.0 mg/kg/injection, schedule: Q04DX002 (ip), vehicle: saline with Tween-80 99 % of control | dose: 50.0 mg/kg/injection, schedule: Q04DX002 (ip), vehicle: saline with Tween-80 92 % of control | dose: 100.0 mg/kg/injection, schedule: Q04DX002 (ip), vehicle: saline with Tween-80 93 % of control

CCN1c2ccccc2SC1CC1=C(O)C(CC2Sc3ccccc3N2CC)=C1O (centres undefined)
inactive: dose: 60.0 mg/kg/injection, schedule: Q01DX005 (ip), vehicle: Klucel (hydroxypropylcellulose) (HPC) 91 % of control | dose: 120.0 mg/kg/injection, schedule: Q01DX005 (ip), vehicle: Klucel (hydroxypropylcellulose) (HPC) 96 % of control | dose: 240.0 mg/kg/injection, schedule: Q01DX005 (ip), vehicle: Klucel (hydroxypropylcellulose) (HPC) 89 % of control

CC(C)=NNc1nc(N(C)C)nc(N(C)C)n1
inactive: [4] 105 % of control | [5] 105 % of control | [6] 103 % of control

Cc1ccc(S(=O)(=O)/N=S(/C)c2ccccc2)cc1 (centres undefined)
inactive: [4] 110 % of control | [5] 100 % of control | [6] 120 % of control

Cc1nn(C(N)=S)c(C)c1N=Nc1ccc([N+](=O)[O-])cc1
inactive: dose: 100.0 mg/kg/injection, schedule: Q01DX001 (ip), vehicle: Klucel (hydroxypropylcellulose) (HPC) 104 % of control | dose: 200.0 mg/kg/injection, schedule: Q01DX001 (ip), vehicle: Klucel (hydroxypropylcellulose) (HPC) 108 % of control | dose: 400.0 mg/kg/injection, schedule: Q01DX001 (ip), vehicle: Klucel (hydroxypropylcellulose) (HPC) 113 % of control
